In patent publication US20260250337A1, “HYBRID ANTIMICROBIAL PEPTIDES” (UNIVERSIDADE FEDERAL DO ABC, priority 2023, published 2026):
No end group written: not given here.

Key:
[1] = system: E. cloacae β-12; experiment: Liquid growth inhibition assay, MIC; assay type: cell-based, Enterobacter cloacae; settings: 37° C., 18 h
Method in brief: (§1)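 Two-fold peptide dilutions (0.09-50 μmol L^−1) in Peptone Broth (bacteria) or Potato Dextrose Broth (fungi), incubated at 37° C. for 18 h (bacteria) or 24 h (fungi). Growth read by absorbance at 595 nm; three biological repeats.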

[2] = system: M. luteus A270; experiment: Liquid growth inhibition assay, MIC; assay type: cell-based, Micrococcus luteus; settings: 37° C., 18 h
Method in brief: as §1

[3] = Circular dichroism, helical fraction (Lifson-Roig); assay type: physicochemical; settings: peptide 50 μmol L^−1
Method in brief: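 Far-UV CD spectra (195–260 nm) of peptide at 50 μmol L⁻¹ in water, TFE/water 3:2, 10 mmol L⁻¹ PBS pH 7.4, 20 mmol L⁻¹ SDS, and 10 mmol L⁻¹ POPC, POPC:DOPE 3:1 or POPC:POPG 3:1 vesicles. Helical fraction was estimated by Lifson-Roig analysis.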

[4] = system: B. megaterium ATCC 10778; experiment: Liquid growth inhibition assay, MIC; assay type: cell-based, Bacillus megaterium; settings: 37° C., 18 h
Method in brief: as §1

[5] = system: E. coli AIC221; experiment: Broth microdilution MIC, ESKAPE pathogens; assay type: cell-based; settings: LB, 37° C., 24 h
Description: (§2) Method. The minimal inhibitory concentration (MIC) against the ESKAPE pathogens was determined using the broth microdilution method^81, 82 in Luria-Bertani (LB) medium. The MIC value was defined as the lowest concentration of peptide at which no microbial growth was observed. A. baumannii ATCC19606, E. coli ATCC11775, E. coli AIC221, E. coli AIC222, K. pneumoniae ATCC13883, S. aureus ATCC12600 P. aeruginosa PAO1, and P. aeruginosa PA14 were incubated on agar plates, and after 24 h, three isolated colonies were inoculated to 5 mL of Luria-Bertani (LB) broth and maintained at 37° C. overnight with shaking. Peptides were then added to 96-well polystyrene microtiter plates at concentrations ranging from 0 to 128 μmol L^−1, and 5×10^5 CFU mL^−1 of each bacterium was inoculated in each well. The plates were incubated at 37° C. for 24 h. Bacterial growth was measured using a microplate reader at 610 nm. Three independent replicates were performed.

[6] = system: K. pneumoniae ATCC13883; experiment: Broth microdilution MIC, ESKAPE pathogens; assay type: cell-based; settings: LB, 37° C., 24 h
Description: as §2

[7] = system: E. coli ATCC11775; experiment: Broth microdilution MIC, ESKAPE pathogens; assay type: cell-based; settings: LB, 37° C., 24 h
Description: as §2

[8] = system: E. coli AIC222; experiment: Broth microdilution MIC, ESKAPE pathogens; assay type: cell-based; settings: LB, 37° C., 24 h
Description: as §2

[9] = system: P. aeruginosa PAO1; experiment: Broth microdilution MIC, ESKAPE pathogens; assay type: cell-based; settings: LB, 37° C., 24 h
Description: as §2

[10] = system: S. aureus ATCC12600; experiment: Broth microdilution MIC, ESKAPE pathogens; assay type: cell-based; settings: LB, 37° C., 24 h
Description: as §2

[11] = system: P. aeruginosa PA14; experiment: Broth microdilution MIC, ESKAPE pathogens; assay type: cell-based; settings: LB, 37° C., 24 h
Description: as §2

[12] = system: A. baumannii ATCC19606; experiment: Broth microdilution MIC, ESKAPE pathogens; assay type: cell-based; settings: LB, 37° C., 24 h
Description: as §2

[13] = system: S. marcescens ATCC 4112; experiment: Liquid growth inhibition assay, MIC; assay type: cell-based, Serratia marcescens; settings: 37° C., 18 h
Method in brief: as §1

[14] = system: human erythrocytes; experiment: Hemolytic activity assay; assay type: cell-based; settings: human erythrocytes, 1 h
Method in brief: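 Fresh heparinised human erythrocytes incubated with peptide at 0.1 to 100 μmol L−1 for 1 h at room temperature; supernatant absorbance at 405 nm after centrifugation. MHC taken as highest concentration with 100% erythrocytes viable; SDS and PBS as positive and negative controls, three biological repeats.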

[15] = system: Plasmodium gallinaceum sporozoites; experiment: Antiplasmodial activity, fluorescence microscopy; assay type: cell-based
Method in brief: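 Sporozoites (9,000) were isolated from infected Aedes aegypti salivary glands and incubated 1 h at 37° C with serially diluted peptides (0.1–1.6 μmol L^−1). Dead parasites were stained with propidium iodide and counted by fluorescence microscopy. Data come from three biological repeats across three mosquito batches (n=9).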

[16] = system: C. albicans MDM8; experiment: Liquid growth inhibition assay, MIC (antifungal); assay type: cell-based, Candida albicans; settings: 37° C., 24 h
Method in brief: as §1

[17] = system: C. tropicalis IOC 4560; experiment: Liquid growth inhibition assay, MIC (antifungal); assay type: cell-based, Candida tropicalis; settings: 37° C., 24 h
Method in brief: as §1

[18] = system: S. epidermidis ATCC 12228; experiment: Liquid growth inhibition assay, MIC; assay type: cell-based; settings: 37° C., 18 h

In the case of “FLPLIGRVLSGIL-NH2 [Temporin A, Phe-Leu-Pro-Leu-Ile-Gly-Arg-Val-Leu-Ser-Gly-Ile-Leu, reference compound]”, the “MIC E. cloacae β-12” value [1] is reported as greater than 50 µM, the “MIC M. luteus A270” value [2] is reported as 3.1 µM and the “Helical fraction (fH) PBS” value ([3]; PBS 10 mmol L^−1, pH 7.4) is reported as 0.07. The “Helical fraction (fH) POPC” value ([3]; POPC 10 mmol L^−1) was 0.31, the “Helical fraction (fH) POPC:DOPE” value ([3]; POPC:DOPE 3:1, mol:mol, 10 mmol L^−1) was 0.44 and the “Helical fraction (fH) POPC:POPG” value ([3]; POPC:POPG 3:1, mol:mol, 10 mmol L^−1) was 0.19. For the same substance, the “Helical fraction (fH) SDS” value ([3]; SDS 20 mmol L^−1 in water) was 0.47, the “Helical fraction (fH) TFE/Water” value ([3]; TFE in water (3:2, v:v)) was 0.65 and the “Helical fraction (fH) Water” value ([3]; water) was 0.08. For the same substance, the “MIC B. megaterium ATCC 10778” value [4] was 6.3 µM, the “MIC E. coli AIC221” value [5] was 128 µM and the “MIC K. pneumoniae ATCC13883” value [6] was 128 µM. For the same substance, the “MIC E. coli ATCC11775” value [7] was 64 µM, the “MIC E. coli AIC222” value [8] was 32 µM and the “MIC P. aeruginosa PAO1” value [9] was 128 µM. The “MIC S. aureus ATCC12600” value [10] was 8 µM, the “MIC P. aeruginosa PA14” value [11] was 128 µM and the “MIC A. baumannii ATCC19606” value [12] was 32 µM. The “MIC S. marcescens ATCC 4112” value [13] was 12.5 µM, the “Hemolytic activity, concentration of peptide needed to kill 10% of red blood cells” value [14] was 0.2 µmol/L and the MHC ([14]; room temperature, concentration with approximately 0% of hemolytic activity) was 0.2 µmol/L. For the same substance, the “P. gallinaceum (% sporozoites at 0.8 μmol L^−1)” value ([15]; 0.8 μmol L^−1, fluorescent (propidium iodide stained) sporozoites, 37° C., 1 h) was 15%, the “antiplasmodial activity” value ([15]; P. gallinaceum sporozoites, concentration range tested) was “no activity” and the “MIC C. albicans MDM8” value [16] was 25 µM. The “MIC C. tropicalis IOC 4560” value [17] was 12.5 µM and the “MIC S. epidermidis ATCC 12228” value [18] was greater than 50 µM.
